In PubChem BioAssay (NCI):
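Dose response: 5 concentrations. Exposure: 48 h. Format: 96-well plates. Endpoint: linear interpolation; highest concentration if not reached. GI50 is the concentration that inhibits growth by half. Definition used: TGI = concentration required for complete inhibition of growth.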

How the values were obtained:
Test in all cases: NCI tumour cell line growth inhibition, 48 h
[1] = system: MALME-3M melanoma
[2] = system: SNB-75 CNS
[3] = system: HT29 colon
[4] = system: MOLT-4 leukemia
[5] = system: SK-MEL-2 melanoma
[6] = system: SNB-19 CNS
[7] = system: BT-549 breast
[8] = system: SW-620 colon
[9] = system: MCF7 breast
[10] = system: SN12C renal

| Structure (SMILES) | TGI [1] | TGI [2] | TGI [3] | TGI [4] | TGI [5] | TGI [6] | TGI [7] | TGI [8] | TGI [9] | TGI [10] | GI50 [1] | GI50 [2] | GI50 [3] | GI50 [4] | GI50 [5] | GI50 [6] | GI50 [7] | GI50 [8] | GI50 [9] | GI50 [10] |
| --- | --- | --- | --- | --- | --- | --- | --- | --- | --- | --- | --- | --- | --- | --- | --- | --- | --- | --- | --- | --- |
| O=[N+]([O-])c1ccc(/C=C\c2ccc3c(c2)OCO3)c([N+](=O)[O-])c1 | 46.5 µM | 31.5 µM | 40.3 µM | 33.8 µM | 35.3 µM | 33.6 µM | 34.2 µM | 41.6 µM | 8.58 µM | 34 µM |  |  |  |  |  |  |  |  |  |  |
| CCOC(=O)c1cc2cc(OCc3ccccc3)ccc2[nH]1 | > 100 µM | > 100 µM | > 100 µM | > 100 µM | > 100 µM | > 100 µM | > 100 µM | > 100 µM | > 100 µM | > 100 µM | > 100 µM | 26 µM | > 100 µM | 36.7 µM | > 100 µM | > 100 µM | > 100 µM | > 100 µM | > 100 µM | > 100 µM |
| Nc1n[nH]c2ccc([C@@H]3Nc4c(F)cc5[nH]ncc5c4[C@H]4C5CCC(C5)[C@@H]34)cc12 (some centres undefined) | > 57.9 µM | 7.25 µM | > 34.4 µM | > 45.5 µM | > 44.3 µM | > 62.9 µM | > 31.8 µM | > 49.1 µM | > 43.4 µM | > 54.9 µM | 1.38 µM | 0.0993 µM | 0.317 µM | 0.439 µM | 0.598 µM | 0.515 µM | 0.374 µM | 0.318 µM | 0.0702 µM | 0.544 µM |
| O=C(O)Cn1ccc(=O)c2c([N+](=O)[O-])cccc21 | > 100 µM | > 100 µM | > 100 µM | > 100 µM | > 100 µM | > 100 µM | > 100 µM | > 100 µM | > 100 µM | > 100 µM |  |  |  |  |  |  |  |  |  |  |
| CCOC(=O)n1c2ccccc2c(=O)n1CCO | > 100 µM | > 100 µM | > 100 µM | > 100 µM | > 100 µM | > 100 µM | > 100 µM | > 100 µM | > 100 µM | > 100 µM |  |  |  |  |  |  |  |  |  |  |
| Cc1cn2c(/C=C3/C(=O)Nc4ccc(C(=O)O)cc43)c(C)nc2s1 | > 100 µM | > 100 µM | > 100 µM | > 100 µM | > 100 µM | > 100 µM | > 100 µM | > 100 µM | > 100 µM | > 100 µM | > 100 µM | > 100 µM | > 100 µM | > 100 µM | > 100 µM | > 100 µM | > 100 µM | > 100 µM | > 100 µM | > 100 µM |
| Oc1ccc(-c2[nH]c3ccccc3c2-c2nc3ccccc3o2)cc1 | 28.3 µM | 10.4 µM | 11.5 µM | 41.3 µM | 12.3 µM | 22.1 µM | 18.8 µM | 13.4 µM | 10.5 µM | 18.5 µM | 7.47 µM | 1.44 µM | 3.65 µM | 6.49 µM | 3.03 µM | 6.77 µM | 5.41 µM | 3.04 µM | 2.83 µM | 4.88 µM |
| CC1=NN(c2nc(N)nc(/C=C\c3ccccc3)n2)C(C)(C)C1 | 29.4 µM | 25.6 µM | 14 µM | 40.7 µM | 30.6 µM | 42.9 µM | 19.1 µM | 44.2 µM | 25.5 µM | 26.6 µM | 10.7 µM | 6.36 µM | 2.47 µM | 13 µM | 11.2 µM | 20.3 µM | 5.09 µM | 4.48 µM | 8 µM | 13.1 µM |
| CCN(CC)CCS(=O)(=O)CCNc1ccnc2cc(Cl)ccc12 | 13.3 µM | > 29 µM | 2.29 µM | 49 µM | 14.1 µM | > 100 µM | 9.62 µM | 12.5 µM | > 33.8 µM | > 100 µM | 2.15 µM | 2.07 µM | 0.868 µM | 1.34 µM | 2.35 µM | 6.69 µM | 2.94 µM | 0.608 µM | 1.86 µM | 3.25 µM |
| CC/C(=C(/c1ccc(/C=C/C(=O)O)cc1)c1ccc2[nH]ncc2c1)c1ccc(F)cc1Cl | 44.9 µM | 26.3 µM | 32.4 µM | 37.3 µM | 27 µM | 31.2 µM | 22.7 µM | 28.5 µM | 15.4 µM | 44.6 µM | 18.6 µM | 6.91 µM | 13.3 µM | 11.3 µM | 10.2 µM | 12.9 µM | 7.79 µM | 12 µM |  | 14.7 µM |
| COc1cc2c(cc1OC)C(SC)C(=O)N(Cc1cccc(OC)c1OC)CC2 (centres undefined) | > 66.6 µM | > 100 µM | 17.1 µM | 45.5 µM | 19.1 µM | > 100 µM | 33.2 µM | > 100 µM | > 42.6 µM | > 100 µM |  |  |  |  |  |  |  |  |  |  |
